# Laboratory results published in ChEMBL document CHEMBL1201862, “PubChem BioAssay data set” (2004).
#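 Five compound concentrations were applied to cells in 96-well plates for 48 hours; endpoints were derived by simple linear interpolation of the resulting dose-response curve. GI50 marks 50% less growth.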 The source made the active and inactive calls. No stated cut-off is given here; in the data, active = GI50 up to about 1.1 µM and inactive = higher.
# Tests used:
# Experiment in all cases: growth of human tumour cells (NCI), 48 h
# A549 = test system: A549
# NCI-H522 = test system: NCI-H522
# A498 = test system: A498
# OVCAR-3 = test system: OVCAR-3
# SK-MEL-28 = test system: SK-MEL-28
# HCT-15 = test system: HCT-15
# K562 = test system: K562
# MDA-MB-435 = test system: MDA-MB-435
# SF-268 = test system: SF-268
# HOP-62 = test system: HOP-62
# M14 = test system: M14
# NCI/ADR-RES = test system: NCI/ADR-RES
# SK-MEL-5 = test system: SK-MEL-5
# NCI-H23 = test system: NCI-H23
# SNB-19 = test system: SNB-19
# OVCAR-4 = test system: OVCAR-4
# MDA-MB-231 = test system: MDA-MB-231
# IGROV-1 = test system: IGROV-1
# SR = test system: SR
# SF-539 = test system: SF-539
SMILES,GI50 (A549),GI50 (NCI-H522),GI50 (A498),GI50 (OVCAR-3),GI50 (SK-MEL-28),GI50 (HCT-15),GI50 (K562),GI50 (MDA-MB-435),GI50 (SF-268),GI50 (HOP-62),GI50 (M14),GI50 (NCI/ADR-RES),GI50 (SK-MEL-5),GI50 (NCI-H23),GI50 (SNB-19),GI50 (OVCAR-4),GI50 (MDA-MB-231),GI50 (IGROV-1),GI50 (SR),GI50 (SF-539)
CCCCC(=O)Nc1ccc2c(C)cc(-c3ccc(-c4cc(-c5ccc(C)cc5)cc(-c5ccc(-c6cc(C)c7ccc(NC(=O)CCCC)nc7n6)cc5)n4)cc3)nc2n1,> 100 µM (inactive),> 100 µM (inactive),> 100 µM (inactive),> 100 µM (inactive),> 100 µM (inactive),> 100 µM,> 100 µM (inactive),> 100 µM (inactive),> 100 µM (inactive),> 100 µM (inactive),> 100 µM (inactive),> 100 µM (inactive),> 100 µM (inactive),> 100 µM (inactive),> 100 µM (inactive),> 100 µM (inactive),> 100 µM (inactive),,,
Cc1ccc(S(=O)(=O)NC(=O)NC(Cc2ccc(O)c(O)c2)C(=O)O)cc1 (centres undefined),> 100 µM (inactive),> 100 µM (inactive),> 100 µM (inactive),> 100 µM (inactive),> 100 µM (inactive),> 100 µM,37.1 µM (inactive),> 100 µM (inactive),0.745 µM (active),> 100 µM (inactive),> 100 µM (inactive),> 100 µM (inactive),> 100 µM (inactive),> 100 µM (inactive),> 100 µM (inactive),> 100 µM (inactive),> 100 µM (inactive),> 100 µM (inactive),,
COc1cc(/C=C2\C[C@H]3[C@@H]4CC=C5C[C@@H](N6CCCC6)CC[C@]5(C)[C@H]4CC[C@]3(C)[C@H]2OC(C)=O)cc(OC)c1OC,15.3 µM (inactive),16.7 µM (inactive),15.2 µM (inactive),15.5 µM (inactive),19 µM (inactive),12.6 µM,,12.9 µM (inactive),14.6 µM (inactive),15.6 µM (inactive),15.8 µM (inactive),16.3 µM (inactive),15.1 µM (inactive),15.2 µM (inactive),18.4 µM (inactive),18.2 µM (inactive),16.3 µM (inactive),16.3 µM (inactive),,
COc1ccc2[nH]c3c(c2c1)CC(=S)N1CCCC(CC3=O)C1 (centres undefined),32.4 µM (inactive),,43.1 µM (inactive),45.8 µM (inactive),86.9 µM (inactive),57.7 µM,,46.3 µM (inactive),45 µM (inactive),87.3 µM (inactive),45.9 µM (inactive),63.5 µM (inactive),37.1 µM (inactive),47.8 µM (inactive),35.6 µM (inactive),58.3 µM (inactive),50.2 µM (inactive),64.4 µM (inactive),,
CC(C)=CCN1CC(C)C(=O)Nc2cc(Cl)ccc21 (centres undefined),30.2 µM (inactive),17.3 µM (inactive),33.3 µM (inactive),15.1 µM (inactive),43.3 µM (inactive),29.9 µM,96.8 µM (inactive),23.4 µM (inactive),35.2 µM (inactive),26.6 µM (inactive),23.2 µM (inactive),,13.6 µM (inactive),21.6 µM (inactive),28.5 µM (inactive),25.6 µM (inactive),22 µM (inactive),24.3 µM (inactive),> 100 µM (inactive),23.5 µM (inactive)
CCOC(=O)CCC(NC(=O)c1ccc(CNc2nc3ccccc3nc2C(=O)OCC)cc1)C(=O)OCC (centres undefined),> 100 µM (inactive),> 100 µM (inactive),> 100 µM (inactive),78.7 µM (inactive),> 100 µM (inactive),> 100 µM,> 100 µM (inactive),3.01 µM (inactive),> 100 µM (inactive),> 100 µM (inactive),> 100 µM (inactive),> 100 µM (inactive),> 100 µM (inactive),> 100 µM (inactive),23.7 µM (inactive),,24.9 µM (inactive),43.7 µM (inactive),,
